Measurements: patent US8350028B2, “2-aminoquinolines” (Hofmann-La Roche Inc., priority 2008, dated 2013)

Each molecule was assayed against T1, recombinant human 5-HT5A receptor (Homo sapiens, UniProt P47898) (assay: [3H]LSD radioligand binding assay). Conditions: [3H]LSD (approximately 1 nM); membranes from HEK-EBNA cells transiently expressing 5-HT5A receptors; Ki calculated from IC50 using the Cheng-Prussoff equation.
T1 construct: expressed in transfected cells; host or cells: HEK-EBNA (Human Embryonic Kidney-EBNA) cells, transient cDNA expression; membranes
T1 sequence (P47898 whole entry): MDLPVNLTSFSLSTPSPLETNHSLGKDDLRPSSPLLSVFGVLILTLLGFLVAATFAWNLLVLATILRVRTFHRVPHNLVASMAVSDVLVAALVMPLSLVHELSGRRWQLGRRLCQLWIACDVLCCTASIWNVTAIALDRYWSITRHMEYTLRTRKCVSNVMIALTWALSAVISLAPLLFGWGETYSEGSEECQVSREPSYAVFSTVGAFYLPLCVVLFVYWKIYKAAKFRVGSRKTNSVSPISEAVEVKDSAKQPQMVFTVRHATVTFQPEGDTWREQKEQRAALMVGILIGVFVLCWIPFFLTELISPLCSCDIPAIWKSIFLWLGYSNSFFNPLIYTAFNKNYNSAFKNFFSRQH
Description: A [^3H]LSD radioligand binding assay was used to determine the affinity of the compounds for the recombinant human 5-HT5A receptor, in membranes from transiently (cDNA) expressed 5-HT5A receptors in Human Embryonic Kidney-EBNA (HEK-EBNA) cells. Assay buffer consisted of Tris (50 mM) buffer containing 1 mM EGTA, 10 mM MgCl2 (pH 7.4) and 10 μM pargyline. The binding assay was carried out in 96-well-plates in the presence of [^3H]LSD (approximately 1 nM), approximately 2 μg/well of membrane protein, and 0.5 mg of Ysi-poly-1-lysine SPA beads in a final volume of 200 μl of buffer. Non-specific binding was defined using methiothepin 2 μM. Compounds were tested at 10 concentrations. All assays were conducted in duplicate and repeated at least two times. Assay plates were incubated for 120 min at room temperature before centrifugation. Bound ligand was determined using a Packard Topcount scintillation counter. IC50 values were calculated using a non-linear curve fitting program and Ki values calculated using the Cheng-Prussoff equation.

`COCCN1CCC(NC(=O)Nc2ccc3nc(NCc4ccccc4OC)ccc3c2)CC1` [Example 23, 1-[2-(2-Methoxy-benzylamino)-quinolin-6-yl]-3-[1-(2-methoxy-ethyl)-piperidin-4-yl]-urea] and `COc1ccccc1CNc1ccc2cc(NC(=O)NC3CCN(CCF)CC3)ccc2n1` [Example 24, 1-[1-(2-Fluoro-ethyl)-piperidin-4-yl]-3-[2-(2-methoxy-benzylamino)-quinolin-6-yl]-urea] are within 1.5-fold of each other in Ki: 6.4 nM for the first, 8.4 nM for the second.

Compared with `COc1ccccc1CNc1ccc2cc(NC(=O)NC3CCN(C4CC4)CC3)ccc2n1` [Example 28, 1-(1-Cyclopropyl-piperidin-4-yl)-3-[2-(2-methoxy-benzylamino)-quinolin-6-yl]-urea], `COc1ccccc1CNc1ccc2cc(NC(=O)NC3CCN(C)CC3)ccc2n1` [Example 17, 1-[2-(2-Methoxy-benzylamino)-quinolin-6-yl]-3-(1-methyl-piperidin-4-yl)-urea] is 2.5-fold lower in Ki: 6.8 nM for the first, 2.7 nM for the second.

Compared with `COc1ccccc1CNc1ccc2cc(NC(=O)NC3CCN(C(=O)CC(F)(F)F)CC3)ccc2n1` [Example 26], `COc1ccccc1CNc1ccc2cc(NC(=O)NC3CCN(C(=O)CF)CC3)ccc2n1` [Example 27, 1-[1-(2-Fluoro-acetyl)-piperidin-4-yl]-3-[2-(2-methoxy-benzylamino)-quinolin-6-yl]-urea] is 2.3-fold lower in Ki: 36.2 nM for the first, 15.7 nM for the second.

Going from `COc1ccccc1CNc1ccc2cc(NS(=O)(=O)NC3CC3)ccc2n1` [Example 20, N-cyclopropyl-N′-{2-[(2-methoxybenzyl)amino]quinolin-6-yl}sulfamide] to `COc1ccccc1CNc1ccc2cc(NS(=O)(=O)N(C)C)ccc2n1` [Example 10, N′-{2-[(2-methoxybenzyl)amino]quinolin-6-yl}-N,N-dimethylsulfamide], the Ki falls from 26.8 nM to 17.1 nM (1.6-fold).

First: Cc1ccc(CNc2ccc3cc(NC(=O)NC4CCN(C)CC4)ccc3n2)o1 [Example 29, 1-{2-[(5-Methyl-furan-2-ylmethyl)-amino]-quinolin-6-yl}-3-(1-methyl-piperidin-4-yl)-urea]
Second: Cc1ccc(CNc2ccc3cc(NC(=O)NC(C)C)ccc3n2)o1 [Example 21, 1-Isopropyl-3-{2-[(5-methyl-furan-2-ylmethyl)-amino]-quinolin-6-yl}-urea]
The Ki of the first is 2.2-fold lower: 12.5 nM for the first, 27.4 nM for the second.

Going from `COc1ccc(CNc2ccc3cc(NC(=O)NC(C)C)ccc3n2)cc1` [Example 18, 1-Isopropyl-3-[2-(4-methoxy-benzylamino)-quinolin-6-yl]-urea] to `COc1ccccc1CNc1ccc2cc(NC(=O)NC(C)C)ccc2n1` [Example 14, 1-Isopropyl-3-[2-(2-methoxy-benzylamino)-quinolin-6-yl]-urea], the Ki falls from 49.5 nM to 3.3 nM (15-fold). The second binds more tightly here.

First: COc1ccccc1CNc1ccc2cc(NC(=O)CN3CCN(C)CC3)ccc2n1 [Example 33, N-[2-(2-Methoxy-benzylamino)-quinolin-6-yl]-2-(4-methyl-piperazin-1-yl)-acetamide]
Second: COc1ccccc1CNc1ccc2cc(NC(=O)C3CC3)ccc2n1 [Example 32, Cyclopropanecarboxylic acid [2-(2-methoxy-benzylamino)-quinolin-6-yl]-amide]
The Ki of the first is 5.1-fold higher: 33 nM for the first, 6.5 nM for the second.

`COc1ccccc1CNc1ccc2cc(NC(=O)NC3CCN(CCSC)CC3)ccc2n1` [Example 30, 1-[2-(2-Methoxy-benzylamino)-quinolin-6-yl]-3-[1-(2-methylsulfanyl-ethyl)-piperidin-4-yl]-urea] and `COc1ccccc1CNc1ccc2cc(NC(=O)NC3CCN(C(C)C)CC3)ccc2n1` [Example 25, 1-(1-Isopropyl-piperidin-4-yl)-3-[2-(2-methoxy-benzylamino)-quinolin-6-yl]-urea] are within 1.5-fold of each other in Ki: 5.9 nM for the first, 6.7 nM for the second.

First: COc1ccccc1CNc1ccc2cc(NS(=O)(=O)N3C[C@@H]4C[C@H]3CO4)ccc2n1 [Example 19, (1S,4S)-2-Oxa-5-aza-bicyclo[2.2.1]heptane-5-sulfonic acid [2-(2-methoxy-benzylamino)-quinolin-6-yl]-amide]
Second: COCC(=O)N1CCC(NC(=O)Nc2ccc3nc(NCc4ccccc4OC)ccc3c2)CC1 [Example 31, 1-[1-(2-Methoxy-acetyl)-piperidin-4-yl]-3-[2-(2-methoxy-benzylamino)-quinolin-6-yl]-urea]
The Ki of the first is 2.5-fold lower: 8 nM for the first, 20.4 nM for the second.
